Patent US6255517A, “Thymol derivatives having anti-tumor activity, and anti-cancer agent comprising the same” (Zee; Ok Pyo, priority 1998, dated 2001)
Where two headings read alike, the source gives them in different places.

Legend:
Format in all cases: cell-based
SK-MEL-2 = assay: SRB cytotoxicity (anti-tumor activity) in vitro, SK-MEL-2; conditions: Homo sapiens, SK-MEL-2 malignant melanoma, 48 hours, read-out: ED50 (the source's name)
Text: (§1) Anti-Tumor (Cyto-Toxicity) Effect in vitro of the Compound According to the Present Invention
(§2) The method for detecting cyto-toxicity employed in the present experiment is Sulforhodamin B Bioassay (SRB) method, which was developed by National Cancer Institute (NCI) in the United States in 1989, for the purpose of measuring anti-tumor activity in vitro.
(§3) The tumor cells used in the experiments via SRB method are listed below:
SK-MEL-2: malignant melanoma, metastasis to skin of thigh
(§4) The tumor cells listed above are all human tumor cell-lines, which were distributed from NCI in the United States and subcultured in Korea Chemical Institute. As a culture medium, RPMI 1640 culture medium supplemented with 5% FBS (fetal bovine serum) was used. Cultivation was performed in an 5% CO2 incubator with constant temperature (37° C.) and humidity. The subculture was carried out every three or four days, and a solution of 0.25% tyrosine and 3 mM trans-1,2-diaminocyclohexane-n,n,n,n-tetracetic acid (CDTA) dissolved in PBS (phosphate buffered saline) was used in order to release cells from the surface of the container.
(§5) The test compound synthesized according to the present invention was diluted to have a concentration of 30.0 μg/ml, 10.0 μg/ml, 3.0 μg/ml, 1.0 μg/ml, 0.3 μg/ml and 0.1 μg/ml, respectively, and the cyto-toxicity (anti-tumor activity) of the compound was measured. The maximum concentration of the sample was not more than 30.0 μg/ml. In order to prepare the samples for detection, DMSO (dimethylsulfoxide) was used, if necessary. The concentration of DMSO added was not more than 0.5%. Before added to the tumor cells, the sample solution, which was diluted via several steps, is filtered through a Millipore filter. In a sterile condition, the sample for detecting cyto-toxicity was prepared by means of SRB method using human tumor cell-lines such as A549, SK-OV-3, SK-MEL-2, XF498 and HCT15.
(§6) The subcultured tumor cells were released from the surface of instrument by using tyrosine-CDTA solution, and then charged on a 96-well flat bottom microplate to make the cell number 5×10^3 (A549, HCT15), 1×10^4 (SK-MEL-2, XF498) and 2×10^4 (SK-OV-3) for each cell. The tumor cells are attached on the bottom by cultivating in a CO2 incubator. After removing the culture medium by using an aspirator, the medium is eliminated by using log dose of six concentrations. To each well, 100 μl of 10% TCA (trichloroacetic acid) is added, and the plate was left for 1 hour at 4° C. to fix the cells on the bottom surface of the plate.
(§7) Then, the plate was washed with distilled water 5-6 times to completely remove the residual TCA solution, and dried up at room temperature. To each well of the completely dried plate, 100 μl of dye solution, in which 0.4% SRB solution was dissolved, was added to dye the cells for 30 minutes, and the cells were washed with 1% acetic acid to remove excess SRB which was not combined with the cells. The dyed cell plates were dried at room temperature, and 100 μl of 10 mM trisma base solution was added to each well. The solution was mixed by a titer plate shaker for 10 minutes to elute the dye solution. Then, the absorbance at 520 nm was measured by using a microplate reader.
(§8) In order to calculate the cyto-toxicity (anti-tumor activity) of the samples on tumor cells, the number of tumor cells at the point of adding the sample (Tz, zero time), the number of cells when only an excess amount of culture medium was added instead of the sample and cultured for 48 hours (C, control), and the number of cells when each concentration of the sample was added and cultured for 48 hours (T, test) were measured respectively. The cyto-toxicity was determined according to the following formulas:
(§9) When Tz>T: [(T-Tz)/(C-Tz)]×100
(§10) When Tz<T: [(T-Tz)/Tz]×100
(§11) From the calculated values thus obtained, ED50 (50% effective dose) [the concentration when the sample inhibits 50% of the growth of the tumor cells] was determined by the use of data regression tool of LOTUS program. […]

SK-OV-3 = assay: SRB cytotoxicity (anti-tumor activity) in vitro, SK-OV-3; conditions: Homo sapiens, SK-OV-3 ovary adenocarcinoma, 48 hours, read-out: ED50 (the source's name)
Text: as §1, §2, §3
SK-OV-3: adenocarcinoma, ovary malignant ascites
as §4, §5, §6, §7, §8, §9, §10, §11

HCT15 = assay: SRB cytotoxicity (anti-tumor activity) in vitro, HCT15; conditions: Homo sapiens, HCT-15, HCT15 colon adenocarcinoma, 48 hours, read-out: ED50 (the source's name)
Text: as §1, §2, §3
HCT15: colon adenocarcinoma
as §4, §5, §6, §7, §8, §9, §10, §11

A549 = assay: SRB cytotoxicity (anti-tumor activity) in vitro, A549; conditions: Homo sapiens
Text: as §1, §2, §3
A549: non small cell lungcarcinoma
as §4, §5, §6, §7, §8, §9, §10, §11

XF498 = assay: SRB cytotoxicity (anti-tumor activity) in vitro, XF498; conditions: Homo sapiens, XF498 central nerve system tumor, 48 hours, read-out: ED50 (the source's name)
Text: as §1, §2, §3
XF498: central nerve system tumor
as §4, §5, §6, §7, §8, §9, §10, §11

[1] = A549 non small cell lung carcinoma, SRB, 48 hours, read-out: ED50 (the source's name)

Compound | IC50 (SK-MEL-2) [µM] | IC50 (SK-OV-3) [µM] | IC50 (HCT15) [µM] | IC50 (A549; [1]) [µM] | IC50 (XF498) [µM] | IC50 (A549; A549, 48 h, read-out: ED50) [µM]
C=C(COS(=O)(=O)c1ccc(OC)cc1)c1ccc(C)cc1OC(C)=O [13'-3, 10-(4-Methoxybenzenesulfoxy)-8,9-methylenethymol acetate] | 8.4 | 27.4 | 2.6 | 28.2 |  | 
Cc1ccc(C2(COC(=O)C(C)C)CO2)c(OC(=O)C(C)C)c1 (centres unmarked) [Compound 11, 10-isobutyryloxy-8,9-epoxythymol isobutyrate] | 11.6 | 8.3 | 10.8 | 40.5 | 37.2 | 
Cc1ccc(C2(COC(=O)Cc3ccccc3)CO2)c(OC(=O)C(C)C)c1 (centres unmarked) [Compound 11-1, 10-Phenylacetoxy-8,9-epoxythymol isobutyrate] | 10.5 | 7.9 | 9.5 |  | 32.5 | 35.5
Cc1ccc(C2(COC(=O)Cc3ccc([N+](=O)[O-])cc3)CO2)c(OC(=O)C(C)C)c1 (centres unmarked) [Compound 11-2, 10-(4-Nitrophenylacetoxy)-8,9-epoxythymol isobutyrate] | 9.9 | 14 | 8.7 | 32.1 | 28.4 | 
Cc1ccc(C2(COC(=O)Cc3ccc(F)cc3)CO2)c(OC(=O)C(C)C)c1 (centres unmarked) [Compound 11-3, 10-(4-Fluorophenylacetoxy)-8,9-epoxythymol isobutyrate] | 3.7 | 1 | 0.6 | 10.7 | 3.1 | 
CC(=O)Oc1cc(C)ccc1C1(COC(=O)Cc2ccc([N+](=O)[O-])cc2)CO1 (centres unmarked) [Compound 14-3, 10-(4-Nitrophenylacetoxy)-8,9-epoxythymol acetate] | 11 | 25.6 | 10.6 | 38.3 | 35.4 | 
CC(=O)OCC1(c2ccc(C)cc2OC(C)=O)CO1 (centres unmarked) [Compound 14-8, 10-Acetoxy-8,9-epoxythymol acetate] | 14.9 | 12.6 | 13.3 | 51.2 | 45.5 | 
CC(=O)Oc1cc(C)ccc1C(O)(CO)COC(=O)Cc1ccccc1 (centres unmarked) [Compound 15-1, 10-Phenylacetoxy-8,9-dihydroxythymol acetate] | 14.8 | 39.9 | 11.6 |  | 59.9 | > 100
CC(=O)Oc1cc(C)ccc1C(O)(CO)COC(=O)Cc1ccc([N+](=O)[O-])cc1 (centres unmarked) [Compound 15-2, 10-(4-Nitrophenylacetoxy)-8,9-dihydroxythymol acetate] | 12.8 | 25.8 | 20.2 | > 100 | 45.1 | 
COc1ccc(CC(=O)OCC(O)(CO)c2ccc(C)cc2OC(C)=O)cc1 (centres unmarked) [Compound 15-4, 10-(4-Methoxyphenylacetoxy)-8,9-dihydroxythymol acetate] | 12 | 21.3 | 11.2 | > 100 | 55.7 | 
CC(=O)Oc1cc(C)ccc1C(O)(CO)COC(=O)c1ccccc1 (centres unmarked) [Compound 15-5, 10-Benzoxy-8,9-dihydroxythymol acetate] | 16.6 | 35.1 | 12.7 | > 100 | 60.4 | 
CC(=O)Oc1cc(C)ccc1C(O)(CO)COC(=O)c1ccc([N+](=O)[O-])cc1 (centres unmarked) [Compound 15-6, 10-(4-Nitrobenzoxy)-8,9-dihydroxythymol acetate] | 10.9 | 19.6 | 10.4 | > 100 | 40.9 | 
